Measured values as given in patent publication US20260337153A1, “IONIZABLE AMINE LIPIDS” (Intellia Therapeutics, Inc., priority 2023, published 2026).

System: rat TTR
Assay: Serum TTR level after LNP delivery (Rat Prealbumin (Transthyretin) ELISA)
Type: in vivo, rat (Sprague-Dawley)
Details: LNP with PEG2K-DMG
Description: Sprague-Dawley female rats, ranging from 6-10 weeks of age were used in each study. Animals were weighed and dosed based on individual body weight measured the morning of dosing. LNPs were dosed via the lateral tail vein in a volume of 2 mL per kilogram of animal body weight. The animals were periodically observed for adverse effects for at least 24 hours post dose.
For studies measuring in vivo editing in liver, Sprague-Dawley female rats were dosed at 0.1 mpk or 0.03 mpk, unless otherwise noted. Animals were euthanized at 6 or 7 days by carbon dioxide asphyxiation and a heart clip or by ex sanguination via cardiac puncture under isoflourane anesthesia. Blood was collected into serum separator tubes. Liver tissue was collected. Genomic DNA was isolated from the liver tissue for editing measurement by Next-Generation Sequencing (NGS).
Blood was collected and the serum was isolated as indicated. The total rat TTR serum levels were determined using a Rat Prealbumin (Transthyretin) ELISA Kit (Aviva Systems Biology, Cat. #OKIA00159). Briefly, sera were serial diluted with kit sample diluent to a final dilution of 10,000-fold. This diluted sample was then added to the ELISA plates and the assay was then carried out according to manufacturer's protocol.
In vivo editing efficiency for materials delivered with formulations including various amine lipid (or ionizable lipid) compounds in Experiments 1 through 14 as described in Tables 3 and 4 was assessed. Editing was measured using G000534 (SEQ ID NO: 5) which targets the rat TTR gene. Lipids described above were assessed for efficacy through in vivo editing experiments. LNPs were formulated at a 1:2 w/w ratio of sgRNA (SEQ ID NO: 5) and Cas9 mRNA (SEQ ID NO: 3). In Experiments 1 through 13, lipid components of the LNP are formulated in a molar ratio of 50% ionizable lipid, 38% cholesterol, 9% DSPC, and 3% PEG2K-DMG. In Experiment 14, lipid components of the LNP are formulated in a molar ratio of 50% ionizable lipid, 38% cholesterol, 9% DSPC, and 3% C13 Ether. The final LNPs used in different in vivo editing experiments were characterized to determine the encapsulation efficiency (% E), polydispersity index (PDI), and average particle size (Z-avg and number mean) according to the analytical methods provided above. The pKa values of each of the following ionizable lipids were also measured to be in the range of about 5.8 to about 7.6.
TSS was used as a vehicle-only negative control. The data are illustrated in FIGS. 1A through 14.

SMILES | % TSS (serum TTR relative to vehicle) (Experiment 5, 0.1 mpk) | Serum TTR (Experiment 5, 0.1 mpk) | % TSS (serum TTR relative to vehicle) (Experiment 1, 0.1 mpk) | Serum TTR (Experiment 1, 0.1 mpk) | % TSS (serum TTR relative to vehicle) (Experiment 2, 0.1 mpk) | Serum TTR (Experiment 2, 0.1 mpk)
CCCCC/C=C\C/C=C\CCCCCCCC(=O)OCC(CCCCCCCCC(=O)OC(CCCCCCCC)CCCCCCCCC)COC(=O)CCC(CCCCCCCC)OC(=O)NCCN1CCCC1 (stereo not drawn) [Compound 25, 11-(octadecan-9-yloxy)-11-oxo-2-(((4-(((2-(pyrrolidin-1-yl)ethyl)carbamoyl)oxy)dodecanoyl)oxy)methyl)undecyl (9Z,12Z)-octadeca-9,12-dienoate] | 70% | 998.3 µg/mL | – | – | – | –
CCCCC/C=C\C/C=C\CCCCCCCC(=O)OCC(CCCCCCCCC(=O)OC(CCCCCCCC)CCCCCCCCC)COC(=O)CCC(CCCCCCCC)OC(=O)NCCN(C)CC (stereo not drawn) [Compound 24, 3-methyl-15-(9-(octadecan-9-yloxy)-9-oxononyl)-9-octyl-7,12-dioxo-8,13-dioxa-3,6-diazahexadecan-16-yl (9Z,12Z)-octadeca-9,12-dienoate] | 95% | 1352.4 µg/mL | – | – | – | –
CCCCC/C=C\C/C=C\CCCCCCCC(=O)OCC(COC(=O)CCCC(=O)OC(CCCCCCCC)CCCCCCCC)COC(=O)NCCN(CC)CC (stereo not drawn) [Compound 58] | – | – | 38% | 406.3 µg/mL | 14% | 198.8 µg/mL
CCCCC/C=C\C/C=C\CCCCCCCC(=O)OCC(COC(=O)CCCC(=O)OC(CCCCCCCC)CCCCCCCC)COC(=O)OCCCN(CC)CC (stereo not drawn) [Compound 56] | – | – | – | – | 28% | 390.1 µg/mL
CCCCC/C=C\C/C=C\CCCCCCCC(=O)OCC(COC(=O)CCCCCC(=O)OC(CCCCCCCC)CCCCCCCC)COC(=O)OCCCN(CC)CC (stereo not drawn) [Compound 57] | – | – | – | – | 30% | 412.3 µg/mL
CCCCC/C=C\C/C=C\CCCCCCCC(=O)OCC(COC(=O)CCC(OCCCCCCCC)OCCCCCCCC)COC(=O)NCCN(CC)CC (stereo not drawn) [Compound 54] | – | – | 48% | 512.9 µg/mL | – | –
CCCCCCC(CCCC)COC(=O)CCCCCC(=O)OCC(COC(=O)CCCCCC(=O)OCC(CCCC)CCCCCC)COC(=O)OCCCN(CC)CC (stereo not drawn) [Compound 5, 7,7′-bis(2-butyloctyl) O′1,O1-(2-((((3-(diethylamino)propoxy)carbonyl)oxy)methyl)propane-1,3-diyl) di(heptanedioate)] | – | – | – | – | 25% | 346.5 µg/mL
CCCCC/C=C\C/C=C\CCCCCCCC(=O)OCC(CCCCCCCCC(=O)OC(CCCCCCCC)CCCCCCCCC)COC(=O)CCC(CCCC)OC(=O)NCCN1CCCC1 (stereo not drawn) [Compound 27, 11-(octadecan-9-yloxy)-11-oxo-2-(((4-(((2-(pyrrolidin-1-yl)ethyl)carbamoyl)oxy)octanoyl)oxy)methyl)undecyl (9Z,12Z)-octadeca-9,12-dienoate] | 21% | 294.3 µg/mL | – | – | – | –
CCCCCCCCC(CCCCCCCC)OC(=O)CCCCCC(=O)OCC(COC(=O)CCCCCC(=O)OC(CCCCCCCC)CCCCCCCC)COC(=O)OCCCN(CC)CC [Compound 3, O′1,O1-(2-((((3-(diethylamino)propoxy)carbonyl)oxy)methyl)propane-1,3-diyl) 7,7′-di(heptadecan-9-yl) di(heptanedioate)] | – | – | – | – | 30% | 414.5 µg/mL
CCCCC/C=C\C/C=C\CCCCCCCC(=O)OCC(COC(=O)CCCCCC(=O)OC(CCCCCCCC)CCCCCCCC)COC(=O)NCCN(CC)CC (stereo not drawn) [Compound 59] | – | – | 50% | 533.0 µg/mL | 20% | 276.6 µg/mL
CCCCC/C=C\C/C=C\CCCCCCCC(=O)OCC(COC(=O)CCCCCC(=O)OCC(CCCC)CCCCCC)COC(=O)OCCCN(CC)CC (stereo not drawn) [Compound 4, 1-(2-butyloctyl) 7-(3-(((3-(diethylamino)propoxy)carbonyl)oxy)-2-((((9Z,12Z)-octadeca-9,12-dienoyl)oxy)methyl)propyl) heptanedioate] | – | – | – | – | 46% | 647.4 µg/mL
CCCCC/C=C\C/C=C\CCCCCCCC(=O)OCC(CCCCCCCCC(=O)OC(CCCCCCCC)CCCCCCCCC)COC(=O)CCC(CCCC)OC(=O)NCCN(C)CC (stereo not drawn) [Compound 26, 9-butyl-3-methyl-15-(9-(octadecan-9-yloxy)-9-oxononyl)-7,12-dioxo-8,13-dioxa-3,6-diazahexadecan-16-yl (9Z,12Z)-octadeca-9,12-dienoate] | 35% | 502.9 µg/mL | – | – | – | –
CCCCCCCCC(CCCCCCCC)OC(=O)CCCC(=O)OCC(COC(=O)CCCC(=O)OC(CCCCCCCC)CCCCCCCC)COC(=O)OCCCN(CC)CC [Compound 2, O,O′-(2-((((3-(diethylamino)propoxy)carbonyl)oxy)methyl)propane-1,3-diyl) di(heptadecan-9-yl) diglutarate] | – | – | – | – | 17% | 238.5 µg/mL
CCCCC/C=C\C/C=C\CCCCCCCC(=O)OCC(COC(=O)CCC(OCCCCCCCC)OCCCCCCCC)COC(=O)OCCCN(CC)CC (stereo not drawn) [Compound 53] | 44% | 624.1 µg/mL | 48% | 519.9 µg/mL | 24% | 341.9 µg/mL
